Data reported in patent publication EP4692094A1 (Beijing Konruns Pharmaceutical Co., Ltd., priority 2023, dated 2024).

Key:
[1] = biological target: T1, KAT7 (Homo sapiens, UniProt O95251); assay: Enzymatic activity assay for KAT7 acetyltransferase (TR-FRET, histone substrate H4); type: biochemical; settings: KAT7 15 nM, H4 300 nM, AcCOA 2 µM
T1 construct: purchased ICE S02210F-H21HF
Experimental: The acetylation effects of KAT6B on histone substrate H3, as well as KAT5, KAT7, and KAT8 on histone substrate H4, were determined using the TR-FRET (time-resolved fluorescence resonance energy transfer) method. The determination was performed according to experimental procedures similar to those in "Pharmacological Experiment I": 1.2 Preparation of compounds: The compounds prepared in the examples were each dissolved in dimethylsulfoxide to give solutions at a concentration of 10 mmol/L. • 1) The compounds in the examples were each diluted from 10 mmol/L stock solution to 0.2 mmol/L, i.e., 1 µL of the compound was added to 49 µL of DMSO, and 3-fold dilution was performed to give 10 concentrations. • 2) 50 nL of the test compounds were transferred to 384 reaction plates using Echo, two replicates for each compound, and the plates were centrifuged at a rotation speed of 1000 rpm for 1 min, the final concentration of dimethylsulfoxide (DMSO) being 0.5%.
For KAT7: • 3) 2.5 µL of the KAT7 enzyme solution at a final concentration of 15 nM was added to the 384 reaction plates in step 2), and the plates were centrifuged at 1000 rpm for 1 min and incubated at 25 °C for 10 min. • 4) 2.5 µL of H4 at a final concentration of 300 nM and an AcCOA (acetyl-CoA) reaction solution at a final concentration of 2 µM were added to the 384 reaction plates in step 3), and the plates were centrifuged at a rotation speed of 1000 rpm for 1 min and incubated at 25 °C for 90 min.
For KAT8: • 3) 2.5 µL of the KAT8 enzyme solution at a final concentration of 10 nM was added to the 384 reaction plates in step 2), and the plates were centrifuged at 1000 rpm for 1 min and incubated at 25 °C for 10 min. • 4) 2.5 µL of […] at a final concentration of 300 nM and an AcCOA (acetyl-CoA) reaction solution at a final concentration of 2 µM were added to the 384 reaction plates in step 3), and the plates were centrifuged at a rotation speed of 1000 rpm for 1 min and incubated at 25 °C for 90 min. • 5) 5 µL of Eu-Ab& Ulight-SA detection solution was separately added to the 384 reaction plates in step 4) of the 4 groups described above, and the plates were centrifuged at 1000 rpm for 1 min and incubated at 25 °C for 60 min. • 6) The HTRF […] signals were read using a BMG high-throughput drug-screening multi-mode microplate reader.
The acetylation levels of the histones in the groups were analyzed by the GraphPad Prism 8 software. The reading of the negative control (0.5% DMSO wells) was set as 0% inhibition rate, and the reading of the positive control (wells with the highest concentration of the control compound) was set as 100% inhibition rate. The inhibition rates were calculated, and then IC50 values (half maximal inhibitory concentration) of test compounds were obtained by using a software nonlinear fitting formula; [formula]
Datapositive control: mean of positive control well values; Datanegative control: mean of negative control well values. Table 5. Enzymatic inhibitory activity of example compounds

[2] = test system: human breast cancer cell line ZR-75-1; assay: Assay for cell growth inhibitory activity (3D hydrogel culture, CCK-8); type: cell-based; settings: 96 h; for viability at 0.0001 µM: ZR-75-1, 0.1 nM, read-out: Cell survival rate at example drug concentration 0.1 nM; for viability at 0.001 µM: ZR-75-1, 1 nM, read-out: Cell survival rate at example drug concentration 1 nM; for viability at 0.01 µM: ZR-75-1, 10 nM, read-out: Cell survival rate at example drug concentration 10 nM; for viability at 0.1 µM: ZR-75-1, 100 nM, read-out: Cell survival rate at example drug concentration 100 nM; for viability at 1 µM: ZR-75-1, 1000 nM, read-out: Cell survival rate at example drug concentration 1000 nM
Experimental: The human breast cancer cell line ZR-75-1 (1 × 10^^6 cells per cell culture dish with 100-mm diameter) was cultured in a 1640 culture medium, and 1% double antibiotics (streptomycin and penicillin), 10% fetal bovine serum (FBS), and 1% glutamine (Glumax) were added simultaneously. The cell culture dish was placed at 37 °C with 5% CO2 for 2 days for culture until the cell confluence reached 80%-90% to give cells in the logarithmic growth phase.
• 1) The example compounds were each dissolved in dimethylsulfoxide to give solutions at a concentration of 10 mmol/L, and the solutions were diluted to 250 µmol/L in 10-fold gradient for 5 concentrations, i.e., 0.2 nmol/L, 2 nmol/L, 20 nmol/L, 200 nmol/L, and 2000 nmol/L. • 2) Blank control wells were prepared by adding 0.1% dimethylsulfoxide to the cultured cells, and were used as high-reading control wells; cell-free 3D hydrogel was used as background wells. • 3) The cultured cells were separately added to the compounds in the examples at 0.2 nmol/L, 2 nmol/L, 20 nmol/L, 200 nmol/L, and 2000 nmol/L as test wells, with the same volumes as the original culture solutions.
• 1) The cells were collected, resuspended in a PBS balanced salt solution, and counted; and the cells were mixed with the 3D hydrogel stock solution and prepared into hydrogel cell suspensions with proper density. • 2) The 3D hydrogel cell suspension (5 × 10^^4 cells) was added to each well in 96-well cell culture plates with low surface adsorption, and the plates were incubated at 37 °C with 5% CO2 for 20 min. • 3) The complete culture medium containing the compound prepared in 1.2 with an equal volume to that of the cell suspension in step 2 was added to the 96-well cell culture plate. • 4) The cells were cultured at 37 °C in a 5% CO2 incubator for 96 h.
• 1) The complete culture medium in the upper layer above the hydrogel was pipetted from each well of the 96-well cell culture plate with a vacuum pump or a manual pipette with careful processing to avoid breaking the hydrogel lower layer. • 2) The complete culture medium containing the CCK-8 substrate with an equal volume to that of the original hydrogel was added to each well. • 3) The plate was cultured at 37 °C with 5% CO2 for 1 h. • 4) The 96-well cell culture plate was placed in a microplate reader, and the values of A450 and A630 were separately detected.
Data analysis: The relative inhibitory level was analyzed by using Excel software, and the survival rates of cells under different compound culture conditions were obtained; [formula]
High-reading control well: cells + dimethylsulfoxide; background well: cell-free hydrogel. Table 7. Cell proliferation inhibitory activity of some of example compounds

T1 sequence (O95251 whole entry): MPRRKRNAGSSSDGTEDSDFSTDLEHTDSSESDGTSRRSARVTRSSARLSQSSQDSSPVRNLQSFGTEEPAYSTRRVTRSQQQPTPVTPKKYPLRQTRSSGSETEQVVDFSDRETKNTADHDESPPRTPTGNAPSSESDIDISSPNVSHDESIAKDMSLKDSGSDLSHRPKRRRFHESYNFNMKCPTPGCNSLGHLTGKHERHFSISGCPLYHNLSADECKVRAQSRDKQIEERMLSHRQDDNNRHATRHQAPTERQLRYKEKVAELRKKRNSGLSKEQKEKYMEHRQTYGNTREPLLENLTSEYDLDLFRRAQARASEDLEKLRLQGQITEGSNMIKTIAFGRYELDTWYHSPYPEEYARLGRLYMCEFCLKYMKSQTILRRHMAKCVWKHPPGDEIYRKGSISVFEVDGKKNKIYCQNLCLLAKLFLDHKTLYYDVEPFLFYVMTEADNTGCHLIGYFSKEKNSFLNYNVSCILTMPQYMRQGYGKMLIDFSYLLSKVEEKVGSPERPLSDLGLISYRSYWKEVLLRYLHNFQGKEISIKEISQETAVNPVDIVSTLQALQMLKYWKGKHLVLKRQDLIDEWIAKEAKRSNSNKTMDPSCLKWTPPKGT

Compound | IC50 [1] | viability at 0.0001 µM [2] | viability at 0.001 µM [2] | viability at 0.01 µM [2] | viability at 0.1 µM [2] | viability at 1 µM [2]
COc1cc2c(cc1S(=O)(=O)Nc1noc3cc(Cn4cccn4)nc(OC)c13)CCCO2 [Example 76, N-(6-((1H-Pyrazol-1-yl)methyl)-4-methoxyisoxazolo[4,5-c]pyridin-3-yl)-7-methoxy-3,4-dihydro-1H-benzopyran-6-sulfonamide] | 86.6 nM |  |  |  |  | 
COc1nc(Cn2cccn2)cc2onc(NS(=O)(=O)c3cccc4ccoc34)c12 [Example 5, N-(6-((1H-Pyrazol-1-yl)methyl)-4-methoxyisoxazolo[4,5-c]pyridin-3-yl)benzofuran-7-sulfonamide] |  | 80% | 85% | 69% | 54% | 35%
COc1ccc2c(c1S(=O)(=O)Nc1noc3cc(Cn4cccn4)nc(OC)c13)OCC2 [Example 9, N-(6-((1H-Pyrazol-1-yl)methyl)-4-methoxyisoxazolo[4,5-c]pyridin-3-yl)-6-methoxy-2,3-dihydrobenzofuran-7-sulfonamide] | 47.5 nM | 63% | 48% | 41% | 38% | 32%
COc1cc2c(cc1S(=O)(=O)Nc1noc3cc(Cn4cccn4)nc(OC)c13)OCC2 [Example 59, N-(6-((1H-Pyrazol-1-yl)methyl)-4-methoxyisoxazolo[4,5-c]pyridin-3-yl)-5-methoxy-2,3-dihydrobenzofuran-6-sulfonamide] | 27.4 nM |  |  |  |  | 
COc1nc(Cn2cccn2)cc2onc(NS(=O)(=O)c3cccc4c3OCCO4)c12 [Example 4, N-(6-((1H-Pyrazol-1-yl)methyl)-4-methoxyisoxazolo[4,5-c]pyridin-3-yl)-2,3-dihydrobenzo[b][1,4]dioxine-5-sulfonamide] |  | 75% | 61% | 41% | 37% | 29%
COc1ccc2ccoc2c1S(=O)(=O)Nc1noc2cc(Cn3cccn3)nc(OC)c12 [Example 10, N-(6-((1H-Pyrazol-1-yl)methyl)-4-methoxyisoxazolo[4,5-c]pyridin-3-yl)-6-methoxybenzofuran-7-sulfonamide] | 7.42 nM | 62% | 45% | 39% | 33% | 29%
COc1cc2c(cc1S(=O)(=O)Nc1noc3cc(Cn4cccn4)nc(OC)c13)CCCC2 [Example 2, N-(6-((1H-Pyrazol-1-yl)methyl)-4-methoxyisoxazolo[4,5-c]pyridin-3-yl)-3-methoxy-5,6,7,8-tetrahydronaphthalene-2-sulfonamide] | 54 nM | 63% | 51% | 43% | 43% | 40%
